The record followed here is US20120238762A1, “AZOLE DERIVATIVES AND METHODS FOR PRODUCING THE SAME, INTERMEDIATE COMPOUNDS FOR THE DERIVATIVES AND METHODS FOR PRODUCING THE SAME, AND AGRO-HORTICULTURAL AGENTS AND INDUSTRIAL MATERIAL PROTECTING AGENTS CONTAINING THE DERIVATIVES” (KUREHA CORPORATION, priority 2009, published 2012).

Bounds are passed on as bounds.

In series [1] the test system is various phytopathogenic fungi for plants and hazardous microorganism for industrial materials. Briefly: microbe, parasite or virus in culture. Also noted: dose or concentration left out as unconfirmed. Format: cell-based.
Series [2] can be described thus: Mycelial growth inhibition on plate medium against industrial material deteriorating microorganisms, treatment at 50 mg/l. The conditions noted are these: read-out: Growth inhibition grade.
Method: Compound (I) was dissolved in 2 ml of dimethyl sulfoxide. 0.6 ml of this solution was added to 60 ml of a PDA medium (potato dextrose agar medium) and at about 60 degrees C., which was mixed thoroughly in a 100-ml conical flask, and poured into a dish, where it was solidified, thereby obtaining a plate medium containing the inventive compound at a certain concentration.
On the other hand, a subject microorganism previously cultured on a plate medium was cut out using a cork borer whose diameter was 4 mm, and inoculated to the test compound-containing plate medium described above. […] The growth degree of the microorganism on the test compound-containing plate medium was compared with the growth degree of the microorganism in the untreated group, and % mycelial growth inhibition was calculated by the following equation.
wherein R=% mycelial extension inhibition, dc=flora diameter in untreated plate, dt=flora diameter in treated plate.
The results obtained were evaluated as one of the 5 grades in accordance with the following criteria.
<Growth Inhibition Grade>
4: % Mycerial growth inhibition of less than 80 to 60% or higher
3: % Mycerial growth inhibition of less than 60 to 40% or higher
2: % Mycerial growth inhibition of less than 40 to 20% or higher
[3] abbreviates: Alternaria alternata, read-out: Growth inhibition grade, A.m.
Setting [4] is: Fusarium graminearum, read-out: Growth inhibition grade, F.g.
The mark [5] stands for this setting: Parastagonospora nodorum, read-out: Growth inhibition grade, P.n.
[6] abbreviates: Pyricularia oryzae, read-out: Growth inhibition grade, P.o.
Setting [7] is: Rhynchosporium secalis, read-out: Growth inhibition grade, R.sec.
Setting [8] is: Sclerotinia sclerotiorum, read-out: Growth inhibition grade, S.s.
Where [9] appears, read: Ustilago nuda, read-out: Growth inhibition grade, U.n.
The mark [10] stands for this setting: read-out: Growth inhibition grade, B.c.
Where [11] appears, read: read-out: Growth inhibition grade, F.c.
[12] abbreviates: read-out: Growth inhibition grade, G.f.
Setting [13] is: read-out: Growth inhibition grade, P.h.

As to `OC(Cn1cncn1)(C1CC1(Cl)Cl)C1(Cl)CC1` (single isomer, unassigned) [I-2a, 1-(1-chlorocyclopropyl)-1-(2,2-dichlorocyclopropyl)-2-(1H-1,2,4-triazol-1-yl)ethanol], the inhibition in series [1] (setting [3]), in series [1] (setting [4]), in series [1] (setting [5]), in series [1] (setting [6]), in series [1] (setting [7]) and in series [1] (setting [8]) was greater than 80% each time. The inhibition in series [1] (setting [9]), in series [1] (setting [10]), in series [1] (setting [11]), in series [1] (setting [12]) and in series [1] (setting [13]) was greater than 80% each time. Also, the inhibition (usually the share of the control response that was lost under treatment) at 50 µg/mL in series [2] fell in the range of 60 to 80%.

Turning to `OC(CC1CC1(Br)Br)(Cn1cncn1)C1(Cl)CC1` (single isomer, unassigned) [I-210a, 2-(1-chlorocyclopropyl)-1-(2,2-dibromocyclopropyl)-3-(1H-1,2,4-triazol-1-yl)propan-2-ol], the melting point (as a rule, the temperature, or range, at which the solid turns liquid) was 114 °C. For the same molecule, the inhibition in series [1] (setting [3]) is greater than 80%. Also, the inhibition in series [1] (setting [4]) was greater than 80%. Besides, the inhibition in series [1] (setting [5]) is greater than 80%. Besides, the inhibition in series [1] (setting [6]) is greater than 80%. Besides, the inhibition in series [1] (setting [7]) was greater than 80%. Besides, the inhibition in series [1] (setting [8]) was greater than 80%. Also, the inhibition in series [1] (setting [9]) is greater than 80%. Also, the inhibition in series [1] (setting [10]) was greater than 80%. Further, the inhibition in series [1] (setting [11]) is greater than 80%. For the same molecule, the inhibition in series [1] (setting [12]) is greater than 80%. The inhibition in series [1] (setting [13]) is greater than 80%. Besides, the inhibition at 50 µg/mL in series [2] fell in the range of 60 to 80%.

As for `OC(CC1CC1(Cl)Cl)(CC1CC1(Cl)Cl)Cn1cncn1` (single isomer, unassigned) [I-277a, 1,3-bis(2,2-dichlorocyclopropyl)-2-(1H-1,2,4-triazol-1-ylmethyl)propan-2-ol], the melting point was 114 to 115 °C.

Take `OC(CC1CC1(Cl)Cl)(CC1CC1(Cl)Cl)Cn1cncn1` (single isomer, unassigned) [I-277b, 1,3-bis(2,2-dichlorocyclopropyl)-2-(1H-1,2,4-triazol-1-ylmethyl)propan-2-ol]: the melting point was in the range of 105 to 106.5 °C.

Consider `OC(CCC1CC1(Cl)Cl)(Cn1cncn1)C1(Cl)CC1` (single isomer, unassigned) [I-607a, 2-(1-chlorocyclopropyl)-4-(2,2-dichlorocyclopropyl)-1-(1H-1,2,4-triazol-1-yl)butan-2-ol], for which the melting point was 130 to 131 °C. In addition, the inhibition in series [1] (setting [3]) was greater than 80%. Further, the inhibition in series [1] (setting [4]) is greater than 80%. In series [1] (setting [5]), the inhibition was greater than 80%. In addition, in series [1] (setting [6]), the inhibition is greater than 80%. In addition, the inhibition in series [1] (setting [7]) was greater than 80%. For the same molecule, the inhibition in series [1] (setting [8]) was greater than 80%. For the same molecule, the inhibition in series [1] (setting [9]) is greater than 80%. For the same molecule, the inhibition in series [1] (setting [10]) is greater than 80%. Also, in series [1] (setting [11]), the inhibition was greater than 80%. Also, in series [1] (setting [12]), the inhibition was greater than 80%. Also, the inhibition in series [1] (setting [13]) was greater than 80%.

With `OC(CCC1CC1(Cl)Cl)(Cn1cncn1)C1(Cl)CC1` (single isomer, unassigned) [I-607b, 2-(1-chlorocyclopropyl)-4-(2,2-dichlorocyclopropyl)-1-(1H-1,2,4-triazol-1-yl)butan-2-ol], the melting point lay within 83 to 84 °C. Moreover, the inhibition at 50 µg/mL in series [2] is 60 to 80%.
